Experimental data taken from ChEMBL document CHEMBL3885861, “Open TG-GATES”.

Organism: Rattus norvegicus
Experiment: Open TG-GATES - Regimen: Single
Assay type: toxicity, organism-based, Sprague-Dawley
Design: regimen Single, gender Male, age 6 weeks
Conditions: in vivo, po, route gavage; for APTT / Bas / Eos / Fbg / Hb / Ht / Lym / MCH / MCHC / MCV / Mono / Neu / PT / Plat / RBC / Ret / WBC: tissue Blood; for KIDNEY_L / KIDNEY_R / KIDNEY_TOTAL: tissue Kidney; for ALP / ALT / AST / CRE / Cl / DBIL / GLC / IP / K / LDH / Na / PL / RALB / TBIL / TC / TG / TP / gamma-GTP: tissue Plasma

With `COc1cc2c(c(OC)c1OC)-c1ccc(OC)c(=O)cc1[C@@H](NC(C)=O)CC2` [COLCHICINE] the APTT (2 mg/kg, 3 h, dose level Low) was 16.6 s, the Bas (2 mg/kg, 3 h, dose level Low) was 0% and the Eos (2 mg/kg, 3 h, dose level Low) was 1%. For the same compound, the Fbg (2 mg/kg, 3 h, dose level Low) was 218.6 mg/dL, the Hb (2 mg/kg, 3 h, dose level Low) was 13.5 g/dL and the Ht (2 mg/kg, 3 h, dose level Low) was 40.7%. For the same compound, the Lym (2 mg/kg, 3 h, dose level Low) was 84.4%, the MCH (2 mg/kg, 3 h, dose level Low) was 21.9 pg and the MCHC (2 mg/kg, 3 h, dose level Low) was 33.2%. For the same compound, the MCV (2 mg/kg, 3 h, dose level Low) was 66.1 fL, the Mono (2 mg/kg, 3 h, dose level Low) was 6.2% and the Neu (2 mg/kg, 3 h, dose level Low) was 8.8%. The PT (2 mg/kg, 3 h, dose level Low) was 11.8 s, the Plat (2 mg/kg, 3 h, dose level Low) was 109.4 x10_4/uL and the RBC (2 mg/kg, 3 h, dose level Low) was 616.8 x10_4/ul. The Ret (2 mg/kg, 3 h, dose level Low) was 10.2%, the WBC (2 mg/kg, 3 h, dose level Low) was 106.7 x10_2/uL and the KIDNEY_L (2 mg/kg, 3 h, dose level Low) was 1 g. For the same compound, the KIDNEY_R (2 mg/kg, 3 h, dose level Low) was 1 g, the KIDNEY_TOTAL (2 mg/kg, 3 h, dose level Low) was 2 g and the ALP (2 mg/kg, 3 h, dose level Low) was 946.8 IU/L. It also gave an ALT (2 mg/kg, 3 h, dose level Low) of 41.6 IU/L, an AST (2 mg/kg, 3 h, dose level Low) of 84.4 IU/L and a CRE (2 mg/kg, 3 h, dose level Low) of 0.5 mg/dL. The Cl (2 mg/kg, 3 h, dose level Low) was 104 meq/L, the DBIL (2 mg/kg, 3 h, dose level Low) was 0.01 mg/dL and the GLC (2 mg/kg, 3 h, dose level Low) was 199.8 mg/dL. For the same compound, the IP (2 mg/kg, 3 h, dose level Low) was 9.3 mg/dL, the K (2 mg/kg, 3 h, dose level Low) was 4.7 meq/L and the LDH (2 mg/kg, 3 h, dose level Low) was 137.8 IU/L. For the same compound, the Na (2 mg/kg, 3 h, dose level Low) was 140.2 meq/L, the PL (2 mg/kg, 3 h, dose level Low) was 143.6 mg/dL and the RALB (2 mg/kg, 3 h, dose level Low) was 3.7 g/dL. It also gave a TBIL (2 mg/kg, 3 h, dose level Low) of 0.4 mg/dL, a TC (2 mg/kg, 3 h, dose level Low) of 80.6 mg/dL and a TG (2 mg/kg, 3 h, dose level Low) of 57.6 mg/dL. The TP (2 mg/kg, 3 h, dose level Low) was 5.5 g/dL, the gamma-GTP (2 mg/kg, 3 h, dose level Low) was 1.8 IU/L and the TERMINAL_BW (2 mg/kg, 6 h, dose level Low) was 217.7 g. The APTT (2 mg/kg, 6 h, dose level Low) was 16.3 s, the Bas (2 mg/kg, 6 h, dose level Low) was 0% and the Eos (2 mg/kg, 6 h, dose level Low) was 1%. For the same compound, the Fbg (2 mg/kg, 6 h, dose level Low) was 218.8 mg/dL, the Hb (2 mg/kg, 6 h, dose level Low) was 13.4 g/dL and the Ht (2 mg/kg, 6 h, dose level Low) was 40.8%. The Lym (2 mg/kg, 6 h, dose level Low) was 81%, the MCH (2 mg/kg, 6 h, dose level Low) was 21.6 pg and the MCHC (2 mg/kg, 6 h, dose level Low) was 32.7%. It also gave an MCV (2 mg/kg, 6 h, dose level Low) of 65.9 fL, a Mono (2 mg/kg, 6 h, dose level Low) of 6.8% and a Neu (2 mg/kg, 6 h, dose level Low) of 11.2%. It also gave a PT (2 mg/kg, 6 h, dose level Low) of 11.9 s, a Plat (2 mg/kg, 6 h, dose level Low) of 109.8 x10_4/uL and an RBC (2 mg/kg, 6 h, dose level Low) of 620 x10_4/ul. For the same compound, the Ret (2 mg/kg, 6 h, dose level Low) was 9.8%, the WBC (2 mg/kg, 6 h, dose level Low) was 115.2 x10_2/uL and the KIDNEY_L (2 mg/kg, 6 h, dose level Low) was 0.9 g. For the same compound, the KIDNEY_R (2 mg/kg, 6 h, dose level Low) was 0.9 g, the KIDNEY_TOTAL (2 mg/kg, 6 h, dose level Low) was 1.9 g and the ALT (2 mg/kg, 6 h, dose level Low) was 40.8 IU/L. The AST (2 mg/kg, 6 h, dose level Low) was 81.8 IU/L, the CRE (2 mg/kg, 6 h, dose level Low) was 0.5 mg/dL and the Cl (2 mg/kg, 6 h, dose level Low) was 104.4 meq/L. The DBIL (2 mg/kg, 6 h, dose level Low) was 0.03 mg/dL, the GLC (2 mg/kg, 6 h, dose level Low) was 188.6 mg/dL and the IP (2 mg/kg, 6 h, dose level Low) was 9.8 mg/dL. It also gave a K (2 mg/kg, 6 h, dose level Low) of 4.7 meq/L, an LDH (2 mg/kg, 6 h, dose level Low) of 113.6 IU/L and a Na (2 mg/kg, 6 h, dose level Low) of 140.2 meq/L. The PL (2 mg/kg, 6 h, dose level Low) was 131.6 mg/dL, the RALB (2 mg/kg, 6 h, dose level Low) was 3.7 g/dL and the TBIL (2 mg/kg, 6 h, dose level Low) was 0.4 mg/dL. The TC (2 mg/kg, 6 h, dose level Low) was 73 mg/dL, the TG (2 mg/kg, 6 h, dose level Low) was 49.6 mg/dL and the TP (2 mg/kg, 6 h, dose level Low) was 5.5 g/dL. For the same compound, the gamma-GTP (2 mg/kg, 6 h, dose level Low) was 1.2 IU/L, the TERMINAL_BW (2 mg/kg, 9 h, dose level Low) was 215.3 g and the APTT (2 mg/kg, 9 h, dose level Low) was 16.2 s. It also gave a Bas (2 mg/kg, 9 h, dose level Low) of 0%, an Eos (2 mg/kg, 9 h, dose level Low) of 0.8% and a Fbg (2 mg/kg, 9 h, dose level Low) of 212.4 mg/dL. The Hb (2 mg/kg, 9 h, dose level Low) was 12.9 g/dL, the Ht (2 mg/kg, 9 h, dose level Low) was 39% and the Lym (2 mg/kg, 9 h, dose level Low) was 72.2%. For the same compound, the MCH (2 mg/kg, 9 h, dose level Low) was 21.2 pg, the MCHC (2 mg/kg, 9 h, dose level Low) was 33.1% and the MCV (2 mg/kg, 9 h, dose level Low) was 64.1 fL. For the same compound, the Mono (2 mg/kg, 9 h, dose level Low) was 11.8%, the Neu (2 mg/kg, 9 h, dose level Low) was 15.6% and the PT (2 mg/kg, 9 h, dose level Low) was 11.7 s. The Plat (2 mg/kg, 9 h, dose level Low) was 114.1 x10_4/uL, the RBC (2 mg/kg, 9 h, dose level Low) was 609.6 x10_4/ul and the Ret (2 mg/kg, 9 h, dose level Low) was 9.8%. The WBC (2 mg/kg, 9 h, dose level Low) was 101.3 x10_2/uL, the KIDNEY_L (2 mg/kg, 9 h, dose level Low) was 1 g and the KIDNEY_R (2 mg/kg, 9 h, dose level Low) was 1 g. It also gave a KIDNEY_TOTAL (2 mg/kg, 9 h, dose level Low) of 2 g, an ALP (2 mg/kg, 9 h, dose level Low) of 888 IU/L and an ALT (2 mg/kg, 9 h, dose level Low) of 47.6 IU/L. For the same compound, the AST (2 mg/kg, 9 h, dose level Low) was 93.4 IU/L, the CRE (2 mg/kg, 9 h, dose level Low) was 0.5 mg/dL and the Cl (2 mg/kg, 9 h, dose level Low) was 105.2 meq/L. It also gave a DBIL (2 mg/kg, 9 h, dose level Low) of 0.072 mg/dL, a GLC (2 mg/kg, 9 h, dose level Low) of 189.2 mg/dL and an IP (2 mg/kg, 9 h, dose level Low) of 9.4 mg/dL. It also gave a K (2 mg/kg, 9 h, dose level Low) of 4.8 meq/L, an LDH (2 mg/kg, 9 h, dose level Low) of 115 IU/L and a Na (2 mg/kg, 9 h, dose level Low) of 137.4 meq/L. For the same compound, the PL (2 mg/kg, 9 h, dose level Low) was 130 mg/dL, the RALB (2 mg/kg, 9 h, dose level Low) was 3.7 g/dL and the TBIL (2 mg/kg, 9 h, dose level Low) was 0.4 mg/dL. It also gave a TC (2 mg/kg, 9 h, dose level Low) of 80.4 mg/dL, a TG (2 mg/kg, 9 h, dose level Low) of 36.2 mg/dL and a TP (2 mg/kg, 9 h, dose level Low) of 5.4 g/dL. The gamma-GTP (2 mg/kg, 9 h, dose level Low) was 1.4 IU/L, the TERMINAL_BW (2 mg/kg, 24 h, dose level Low) was 231.9 g and the APTT (2 mg/kg, 24 h, dose level Low) was 17.8 s. For the same compound, the Bas (2 mg/kg, 24 h, dose level Low) was 0%, the Eos (2 mg/kg, 24 h, dose level Low) was 1% and the Fbg (2 mg/kg, 24 h, dose level Low) was 213 mg/dL. The Hb (2 mg/kg, 24 h, dose level Low) was 12.8 g/dL, the Ht (2 mg/kg, 24 h, dose level Low) was 38.5% and the Lym (2 mg/kg, 24 h, dose level Low) was 79.6%. The MCH (2 mg/kg, 24 h, dose level Low) was 22.1 pg, the MCHC (2 mg/kg, 24 h, dose level Low) was 33.3% and the MCV (2 mg/kg, 24 h, dose level Low) was 66.4 fL. For the same compound, the Mono (2 mg/kg, 24 h, dose level Low) was 7.6%, the Neu (2 mg/kg, 24 h, dose level Low) was 11.8% and the PT (2 mg/kg, 24 h, dose level Low) was 11.3 s. For the same compound, the Plat (2 mg/kg, 24 h, dose level Low) was 108 x10_4/uL, the RBC (2 mg/kg, 24 h, dose level Low) was 580.6 x10_4/ul and the Ret (2 mg/kg, 24 h, dose level Low) was 9.1%. For the same compound, the WBC (2 mg/kg, 24 h, dose level Low) was 127.4 x10_2/uL, the KIDNEY_L (2 mg/kg, 24 h, dose level Low) was 1.1 g and the KIDNEY_R (2 mg/kg, 24 h, dose level Low) was 1.1 g. The KIDNEY_TOTAL (2 mg/kg, 24 h, dose level Low) was 2.1 g, the ALP (2 mg/kg, 24 h, dose level Low) was 972.6 IU/L and the ALT (2 mg/kg, 24 h, dose level Low) was 37.2 IU/L. For the same compound, the AST (2 mg/kg, 24 h, dose level Low) was 69 IU/L, the CRE (2 mg/kg, 24 h, dose level Low) was 0.6 mg/dL and the Cl (2 mg/kg, 24 h, dose level Low) was 103.4 meq/L. The DBIL (2 mg/kg, 24 h, dose level Low) was 0.05 mg/dL, the GLC (2 mg/kg, 24 h, dose level Low) was 201.2 mg/dL and the IP (2 mg/kg, 24 h, dose level Low) was 6.6 mg/dL. For the same compound, the K (2 mg/kg, 24 h, dose level Low) was 4.4 meq/L, the LDH (2 mg/kg, 24 h, dose level Low) was 113 IU/L and the Na (2 mg/kg, 24 h, dose level Low) was 139 meq/L. For the same compound, the PL (2 mg/kg, 24 h, dose level Low) was 156.6 mg/dL, the RALB (2 mg/kg, 24 h, dose level Low) was 3.8 g/dL and the TBIL (2 mg/kg, 24 h, dose level Low) was 0.4 mg/dL. For the same compound, the TC (2 mg/kg, 24 h, dose level Low) was 83.6 mg/dL, the TG (2 mg/kg, 24 h, dose level Low) was 125.8 mg/dL and the TP (2 mg/kg, 24 h, dose level Low) was 5.7 g/dL. For the same compound, the gamma-GTP (2 mg/kg, 24 h, dose level Low) was 1 IU/L and the TERMINAL_BW (5 mg/kg, 3 h, dose level Middle) was 224.6 g.
